Patent US9597407B2, “Targeted antimicrobial moieties” (C3 Jian, Inc., priority 2009, dated 2017)
“Also recorded” adds a separate entry of the source.

Legend:
bacteria = experiment: Binding of targeting peptides to microorganisms (Table 3); settings: preferably 1x PBS; for Target(s) (microorganisms bound by the targeting peptide) / Target(s) (microorganism bound by the targeting peptide): peptide binding in aqueous buffers that varied depending on peptide solubility
microorganisms [1] = experiment: Morphology, biofilm and growth disruption by peptides (Table 5); assay type: cell-based; parameters: key: A: Peptide aggregates; B: Less hyphal formation; Clumps; Diffuse clumps and small polyps; F: Diffuse growth; H: Thin; I: Growth inhibition; Microcolony formation; Rippled; Small polyps; Thick; W: Halo formation on top, microlonies on bottom
From the text: In certain embodiments peptides that induce alterations in phenotype or other biological activities can also be used as antimicrobial effector moieties.

microorganisms [2] = experiment: Peptide activities: binding, antimicrobial, growth or phenotype altering (Table 8)
From the text: In certain embodiments, peptides described herein can have multiple activities. Thus for example, a peptide can have both binding/targeting activity and antimicrobial activity. Such peptides can be used, e.g., in a chimeric construct, for any or all of these properties. Thus, for example, a peptide designated “B” in Table 8 can be used as a targeting peptide. If it is also designated G or M it can also be used for antimicrobial activity.

| Substance | Target(s) (microorganisms bound by the targeting peptide) (bacteria) | Activities (microorganisms [2]) | Organism, effect (morphology, biofilm and growth disruption) (microorganisms [1]; MRSA) | Organism, effect (morphology, biofilm and growth disruption) (microorganisms [1]; S. pneumoniae) | Target(s) (microorganism bound by the targeting peptide) (bacteria) | further results |
| --- | --- | --- | --- | --- | --- | --- |
| PF-390 (VVAYVITQVGAIRF; Peptide with targeting and/or antimicrobial activity) | S. epidermidis and P. aeruginosa and C. albicans and MRSA | G B | – | – | – | Organism, effect (microorganisms [1]; C. jejuni): C. jejuni (D); Organism, effect (microorganisms [1]; E. coli): E. coli (C); Organism, effect (microorganisms [1]; E. faecalis): E. faecalis (D); Organism, effect (microorganisms [1]; MRSA): MRSA (D); Organism, effect (microorganisms [1]; S. epidermidis): S. epidermidis (D); Organism, effect (microorganisms [1]; S. pneumoniae): S. pneumoniae (D) |
| PF-422 (MSRKKYENDEKSQKKLKIGRKSDVFYGIID; Peptide with targeting and/or antimicrobial activity) | C. albicans and MRSA and C. jeikeium | G B | MRSA (C) | S. pneumoniae (C) | – | Organism, effect (morphology, biofilm and growth disruption) (microorganisms [1]; C. jejuni): C. jejuni (R); Organism, effect (morphology, biofilm and growth disruption) (microorganisms [1]; E. faecalis): E. faecalis (R); Organism, effect (morphology, biofilm and growth disruption) (microorganisms [1]; S. epidermidis): S. epidermidis (R) |
| PF-C098 (PETKGKVSAFVFGIVVANVIAVVYILYMLREIGIIQ; Peptide with targeting and/or antimicrobial activity) | – | G B | – | – | A. naeslundii; also recorded: F. nucleatum; also recorded: P. gingivalis; also recorded: S. mutans; also recorded: T. denticola | Organism, effect (morphology, biofilm and growth disruption) (microorganisms [1]; F. nucleatum): F. nucleatum (T); Organism, effect (morphology, biofilm and growth disruption) (microorganisms [1]; S. mutans): S. mutans (F) |
| PF-551 (QVKEKRREIELQFRDAEKKLEASVQAE; Peptide with targeting and/or antimicrobial activity) | S. pneumoniae | G B | MRSA (C) | – | – | – |
| PF-757 (chain 1 PQAISSVQQNA; chain 2 PQAISSVQQNA; Peptide with targeting and/or antimicrobial activity) | – | G B | – | S. pneumoniae (H) | M. luteus and C. albicans and MRSA | – |
| PF-476 (WADAQYKLCENCSE; Peptide with targeting and/or antimicrobial activity) | M. luteus; also recorded: P. mirabilis; also recorded: C. albicans; also recorded: S. pneumoniae; also recorded: E. faecalis; also recorded: C. jeikeium; also recorded: C. jejuni | G B | – | S. pneumoniae (H) | – | – |
| PF-045 (LDINDYRSTY; Peptide with targeting and/or antimicrobial activity) | – | G B | – | – | – | Target(s) (bacteria; microorganism the targeting peptide binds, binding in aqueous buffers that varied with peptide solubility): S. epidermidis; also recorded: E. coli; also recorded: E. faecalis; also recorded: C. jejuni; Organism, effect (microorganisms [1]; MRSA): MRSA (S) |
| PF-552 (ELDKADAALGPAKNLAPLDVINRS; Peptide with targeting and/or antimicrobial activity) | S. pneumoniae | G B | – | – | – | Organism, effect (morphology, biofilm and growth disruption) (microorganisms [1]; B. subtilis): B. subtilis (D) |
| PF-635 (chain 1 MNAHGHSLIFQKMIVHAFAFFSKQKNYLYF; chain 2 MNAHGHSLIFQKMIVHAFAFFSKQKNYLYF; Peptide with targeting and/or antimicrobial activity) | – | G B | MRSA (D) | S. pneumoniae (D) | S. epidermidis and P. aeruginosa and C. albicans and MRSA and S. pneumoniae and E. faecalis and C. jeikeium | Organism, effect (morphology, biofilm and growth disruption) (microorganisms [1]; C. albicans): C. albicans (B); Organism, effect (morphology, biofilm and growth disruption) (microorganisms [1]; C. jeikeium): C. jeikeium (D); Organism, effect (morphology, biofilm and growth disruption) (microorganisms [1]; E. faecalis): E. faecalis (D); Organism, effect (morphology, biofilm and growth disruption) (microorganisms [1]; S. epidermidis): S. epidermidis (M) |
